Laboratory results: US6949531B2, “14 β, 16, 17-methylene steroids as novel androgens” (Akzo Nobel N.V., priority 2000, dated 2005)

Biological target: T1, human androgen receptor (hAR) (Homo sapiens, UniProt P10275)
T1 construct: expressed in transfected cells; host or cells: Chinese hamster ovary (CHO) cells
T1 sequence (P10275 1-920): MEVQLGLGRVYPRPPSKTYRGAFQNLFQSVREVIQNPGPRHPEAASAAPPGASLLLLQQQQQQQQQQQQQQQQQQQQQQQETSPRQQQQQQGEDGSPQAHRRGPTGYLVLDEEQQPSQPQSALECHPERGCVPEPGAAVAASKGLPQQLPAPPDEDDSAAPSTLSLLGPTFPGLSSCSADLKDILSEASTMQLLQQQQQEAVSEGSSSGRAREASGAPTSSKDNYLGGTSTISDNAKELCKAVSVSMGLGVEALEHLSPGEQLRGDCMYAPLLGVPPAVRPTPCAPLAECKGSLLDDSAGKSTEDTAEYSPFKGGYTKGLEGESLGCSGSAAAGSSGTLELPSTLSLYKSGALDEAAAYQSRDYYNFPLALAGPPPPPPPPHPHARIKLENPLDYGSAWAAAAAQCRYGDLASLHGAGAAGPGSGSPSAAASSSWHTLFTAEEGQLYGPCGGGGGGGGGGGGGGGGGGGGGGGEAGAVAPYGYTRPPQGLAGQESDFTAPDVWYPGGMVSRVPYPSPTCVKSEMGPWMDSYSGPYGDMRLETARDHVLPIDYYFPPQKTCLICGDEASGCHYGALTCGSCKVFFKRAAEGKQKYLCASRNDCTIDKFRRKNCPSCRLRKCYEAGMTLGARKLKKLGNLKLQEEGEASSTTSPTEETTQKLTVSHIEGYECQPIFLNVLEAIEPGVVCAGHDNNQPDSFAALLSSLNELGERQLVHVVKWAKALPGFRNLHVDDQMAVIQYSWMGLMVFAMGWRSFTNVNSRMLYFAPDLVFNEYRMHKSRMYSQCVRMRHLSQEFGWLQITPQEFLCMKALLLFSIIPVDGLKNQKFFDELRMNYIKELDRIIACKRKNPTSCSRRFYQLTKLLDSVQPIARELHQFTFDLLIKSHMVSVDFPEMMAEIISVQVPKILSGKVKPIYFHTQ
Assay: transactivative androgen activity in CHO cells transfected with hAR, MMTV and luciferase reporter gene
Assay type: cell-based
Conditions: MMTV, luciferase, incubation 16 h, 37° C., compared with the activity of dihydrotestosterone
Procedure: Androgenic activity can be measured in various ways. Thus, the potency of androgens can be determined in vitro using the cytoplasmic androgen receptor from human breast tumor cells (MCF-7 cell line); see Bergink, E. W. et al, Comparison of the receptor binding properties of nandrolone and testosterone under in vitro and in vivo conditions, J. Steroid Biochem. 22, 831-836 (1985). It is also possible to use Chinese hamster ovary (CHO) cells transfected with the human androgen receptor (incubation time 16 h, temperature 4° C.) and compared with the affinity of 5α-dihydrotestosterone [according to the procedure described by Bergink, E. W. et al, J. Steroid Biochem. 19, 1563-1570 (1983)]. The transactivative androgen activity of the compounds of the invention can be measured, e.g. in Chinese hamster ovary cells (CHO) transfected with the human androgen receptor (hAR), in combination with a mouse mammary tumor virus (MMTV), and luciferase […] gene (incubation time 16 h, temperature 37° C.) and compared with the activity of […] [according to the procedure described by Schoonen, W. G. E. J. et al, Analyt. […] In this test the androgenic (increase in prostate weight) and anabolic activities [increase of the musculus levator ani (MLA)] of a compound are tested in immature castrated rats after daily administration for 7 days; see Hershberger, L. G. et al, Myotrophic activity of 19-Nortestosteronie and other steroids determined by modified levator ani muscle method, Proceedings of the society for experimental biology and medicine 83, 175-180 (1953). […]
The transactivative androgen activity was determined in a comparison of the following compounds: the compound of Example 1 according to the invention, i.e. (7α,14β,16α,17α)-16,17-dihydro-17-(hydroxymethyl)-7-methyl-3′H-cyclopropa[16,17]estra-4,16-dien-3-one, and compounds denoted C1 and C2, not according to the invention, which respectively are (7α,14β,16β,17α)-17-(hydroxymethyl)-7,16-dimethylestr-4-en-3-one and (7α,14β,17α)-17-(hydroxymethyl)-7,17-dimethylestr-4-en-3-one as disclosed in WO 00/53619.

| SMILES | Transactivative androgen activity |
| --- | --- |
| C[C@@H]1CC2=CC(=O)CC[C@@H]2[C@H]2CC[C@@]3(C)[C@H](C[C@@H]4C[C@@]43CO)[C@@H]21 [Example 1, (7α,14β,16α,17α)-16,17-Dihydro-17-(hydroxymethyl)-7-methyl-3′H-cyclopropa[16,17]estra-4,16-dien-3-one] | 263 |
| C[C@@H]1CC2=CC(=O)CC[C@@H]2[C@H]2CC[C@@]3(C)[C@H](C[C@H](C)[C@H]3CO)[C@@H]21 [Example C1, (7α,14β,16β,17α)-17-(hydroxymethyl)-7,16-dimethylestr-4-en-3-one] | 72 |
| CC1CC2=CC(=O)CCC2C2CCC3(C)C(CCC3(C)CO)C12 (stereo not drawn) [Example C2, (7α,14β,17α)-17-(hydroxymethyl)-7,17-dimethylestr-4-en-3-one] | 22 |

Tested on: androgen receptor
Assay: androgenic activity rating (procedures described above)
Parameters: key: +: androgenic activity found; ++: high androgenic activity; +++: excellent androgenic activity
Conditions: rated according to scheme; test procedure not specified
Procedure: Androgenic activity can be measured in various ways. Thus, the potency of androgens can be determined in vitro using the cytoplasmic androgen receptor from human breast tumor cells (MCF-7 cell line); see Bergink, E. W. et al, Comparison of the receptor binding properties of nandrolone and testosterone under in vitro and in vivo conditions, J. Steroid Biochem. 22, 831-836 (1985). It is also possible to use Chinese hamster ovary (CHO) cells transfected with the human androgen receptor (incubation time 16 h, temperature 4° C.) and compared with the affinity of 5α-dihydrotestosterone [according to the procedure described by Bergink, E. W. et al, J. Steroid Biochem. 19, 1563-1570 (1983)]. The transactivative androgen activity of the compounds of the invention can be measured, e.g. in Chinese hamster ovary cells (CHO) transfected with the human androgen receptor (hAR), in combination with a mouse mammary tumor virus (MMTV), and luciferase […] gene (incubation time 16 h, temperature 37° C.) and compared with the activity of […] [according to the procedure described by Schoonen, W. G. E. J. et al, Analyt. Biochem. 261, 222-224 (1998)]. For the in vivo potency determination of androgens the classical Hershberger test can be used. In this test the androgenic (increase in prostate weight) and anabolic activities [increase of the musculus levator ani (MLA)] of a compound are tested in immature castrated rats after daily administration for 7 days; see Hershberger, L. G. et al, Myotrophic activity of 19-Nortestosteronie and other steroids determined by modified levator ani muscle method, Proceedings of the society for experimental biology and medicine 83, 175-180 (1953). Additionally, the effect of an androgenic compound on LH suppression can be tested in mature castrated rats according to Kumar, N. et al, The biological activity of 7alpha-methyl-19-nortestosterone is not amplified in male reproductive tract as is that of testosterone, Endocrinology 130, 3677-3683 (1992).
The compounds according to the invention were tested for androgenic activity (the procedures for which have been described above) and rated according to the following scheme: […]

| SMILES | Result (androgenic activity) |
| --- | --- |
| C[C@@H]1CC2=CC(=O)CC[C@@H]2[C@H]2CC[C@@]3(C)[C@H](C[C@@H]4C[C@@]43CO)[C@@H]21 [Example 1, (7α,14β,16α,17α)-16,17-Dihydro-17-(hydroxymethyl)-7-methyl-3′H-cyclopropa[16,17]estra-4,16-dien-3-one] | +++ |
| C[C@@H]1CC2=CC(=O)CC[C@@H]2[C@H]2CC[C@@]3(C)[C@H](C[C@@H]4C[C@@]43[C@H](C)O)[C@@H]21 [Example 2, (7α,14β,16α,17α,20S)-16,17-Dihydro-20-hydroxy-7-methyl-3′H-cyclopropa[16,17]-19-norpregna-4,16-dien-3-one] | ++ |
| CC[C@H](O)[C@]12C[C@H]1C[C@@H]1[C@H]3[C@H](CC[C@@]12C)[C@H]1CCC(=O)C=C1C[C@H]3C [Example 3a, [7α,14β,16α,17α(20S)]-16,17-Dihydro-20-(1-hydroxypropyl)-7-methyl-3′H-cyclopropa [16,17]estra-4,16-dien-3-one] | ++ |
| C#C[C@H](O)[C@]12C[C@H]1C[C@@H]1[C@H]3[C@H](CC[C@@]12C)[C@H]1CCC(=O)C=C1C[C@H]3C [Example 3b, [7α,14β,16α,17α(20S)]-16,17-Dihydro-20-(1-hydroxy-2-propynyl)-7-methyl-3 ′H-cyclopropa[16,17]estra-4,16-dien-3-one] | ++ |
| C[C@@H]1CC2=C[C@@H](O)CC[C@@H]2[C@H]2CC[C@@]3(C)[C@H](C[C@@H]4C[C@@]43CO)[C@@H]21 [Example 4, (3β,7α,14β,16α,17α)-16,17-Dihydro-17-(hydroxymethyl)-7-methyl-3′H-cyclopropa[16,17]estra-4,16-dien-3-ol] | (prodrug) |
| C[C@@H]1CC2=C/C(=N/O)CC[C@@H]2[C@H]2CC[C@@]3(C)[C@H](C[C@@H]4C[C@@]43CO)[C@@H]21 [Example 5a, (3E,7α,14β,16α,17α)-16,17-Dihydro-3-(hydroxyimino)-7-methyl-3′H-cyclopropa[16,17]estra-4,16-diene-17-methanol] | (prodrug) |
| C[C@@H]1CC2=C/C(=N\O)CC[C@@H]2[C@H]2CC[C@@]3(C)[C@H](C[C@@H]4C[C@@]43CO)[C@@H]21 [Example 5b, (3Z,7α,14β,16α,17α)-16,17-dihydro-3-(hydroxyimino)-7-methyl-3′H-cyclopropa[16,17]estra-4,16-diene-17-methanol] | (prodrug) |
| C[C@]12CC[C@H]3[C@@H](CCC4=CC(=O)CC[C@@H]43)[C@H]1C[C@@H]1C[C@@]12CO [Example 6, (14β,16α,17α)-16,17-Dihydro-17-(hydroxymethyl)-3′H-cyclopropa[16,17]estra-4,16-dien-3-one] | ++ |
| C[C@]12CC[C@H]3[C@@H](CC[C@H]4CC(=O)CC[C@@H]43)[C@H]1C[C@@H]1C[C@@]12CO [Example 7, (5α,14β,16α,17α)-16,17-Dihydro-17-(hydroxymethyl)-3′H-cyclopropa[16,17]estr-16-en-3-one] | ++ |
